19 compounds from US8431565B2 (priority 2007, dated 2013) can be followed below.

This assay deals with human CB1 receptor (hCB1) (Homo sapiens, UniProt P21554). It counts as cell-based.
human CB1 receptor (hCB1), sequence (P21554 whole entry): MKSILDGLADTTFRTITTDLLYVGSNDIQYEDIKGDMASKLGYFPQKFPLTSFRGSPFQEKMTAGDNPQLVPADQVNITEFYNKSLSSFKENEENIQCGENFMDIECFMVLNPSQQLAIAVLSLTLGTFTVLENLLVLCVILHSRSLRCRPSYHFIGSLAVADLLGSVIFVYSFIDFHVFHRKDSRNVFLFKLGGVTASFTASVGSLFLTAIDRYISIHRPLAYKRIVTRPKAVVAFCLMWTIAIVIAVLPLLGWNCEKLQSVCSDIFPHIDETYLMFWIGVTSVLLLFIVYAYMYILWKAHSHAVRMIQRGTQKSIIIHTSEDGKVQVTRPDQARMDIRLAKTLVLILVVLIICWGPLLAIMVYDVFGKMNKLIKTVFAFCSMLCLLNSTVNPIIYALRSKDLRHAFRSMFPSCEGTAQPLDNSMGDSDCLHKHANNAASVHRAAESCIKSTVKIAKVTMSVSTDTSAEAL
Consider `CNC(=O)[C@@H](NC(=O)c1nc(-c2cccnc2Cl)n2c1CN(C)CCC2)C(C)(C)C` [Compound 628, (S)-3-(2-chloropyridin-3-yl)-N-(3,3-dimethyl-1-(methylamino)-1-oxobutan-2-yl)-8-methyl-6,7,8,9-tetrahydro-5H-imidazo[1,5-a][1,4]diazepine-1-carboxamide], for which the EC50 was above 10 µM. Compound `CNC(=O)[C@@H](NC(=O)c1nc(-c2cccc(F)c2OC)n2c1CN(C)CCC2)C(C)(C)C` [Compound 657, (S)-N-(3,3-dimethyl-1-(methylamino)-1-oxobutan-2-yl)-3-(3-fluoro-2-methoxyphenyl)-8-methyl-6,7,8,9-tetrahydro-5H-imidazo[1,5-a][1,4]diazepine-1-carboxamide] had a half-maximal effective concentration (EC50) above 10 µM. Under `CNC(=O)[C@@H](NC(=O)c1nc(C2=CCCCO2)n2c1CN(C)CCC2)C(C)(C)C` [Compound 452, (S)-3-(3,4-dihydro-2H-pyran-6-yl)-N-(3,3-dimethyl-1-(methylamino)-1-oxobutan-2-yl)-8-methyl-6,7,8,9-tetrahydro-5H-imidazo[1,5-a][1,4]diazepine-1-carboxamide] stands above 10 µM.

As to `CNC(=O)[C@@H](NC(=O)c1nc(-c2ccccc2C)n2c1CN(C)CCC2)C(C)(C)C` [Compound 647, (S)-N-(3,3-dimethyl-1-(methylamino)-1-oxobutan-2-yl)-8-methyl-3-o-tolyl-6,7,8,9-tetrahydro-5H-imidazo[1,5-a][1,4]diazepine-1-carboxamide], the EC50 was above 10 µM.

Compound `CN1CCCn2c(-c3cc(Cl)ccc3F)nc(C(=O)N[C@H](C(=O)N[C@H]3CN4CCC3CC4)C(C)(C)C)c2C1` [Compound 744, 3-(5-chloro-2-fluorophenyl)-N-((S)-3,3-dimethyl-1-oxo-1-((R)-quinuclidin-3-ylamino)butan-2-yl)-8-methyl-6,7,8,9-tetrahydro-5H-imidazo[1,5-a][1,4]diazepine-1-carboxamide] returned an EC50 above 10 µM.

The compound `CNC(=O)[C@@H](NC(=O)c1nc(C2CCN(C(=O)c3ccccc3)CC2)n2c1CN(C)CCC2)C(C)(C)C` [Compound 726, (S)-3-(1-benzoylpiperidin-4-yl)-N-(3,3-dimethyl-1-(methylamino)-1-oxobutan-2-yl)-8-methyl-6,7,8,9-tetrahydro-5H-imidazo[1,5-a][1,4]diazepine-1-carboxamide] gave a concentration giving a half-maximal response (EC50) above 10 µM. On to `CNC(=O)[C@@H](NC(=O)c1nc(-c2cnccc2Cl)n2c1CN(C)CCC2)C(C)(C)C` [Compound 627, (S)-3-(4-chloropyridin-3-yl)-N-(3,3-dimethyl-1-(methylamino)-1-oxobutan-2-yl)-8-methyl-6,7,8,9-tetrahydro-5H-imidazo[1,5-a][1,4]diazepine-1-carboxamide], for which the 50% effective concentration (EC50) was above 10 µM. Compound `CNC(=O)[C@@H]1CCN(C(=O)c2nc(-c3cc(F)c(F)cc3F)n3c2CN(C)CCC3)C1` [Compound 758, (R)-N-methyl-1-(8-methyl-3-(2,4,5-trifluorophenyl)-6,7,8,9-tetrahydro-5H-imidazo[1,5-a][1,4]diazepine-1-carbonyl)pyrrolidine-3-carboxamide] yielded an EC50 above 10 µM. Under `CNC(=O)[C@@H]1CCN(C(=O)c2nc(-c3cc(Cl)c(F)cc3F)n3c2CN(C)CCC3)C1` [Compound 808, (R)-1-(3-(5-chloro-2,4-difluorophenyl)-8-methyl-6,7,8,9-tetrahydro-5H-imidazo[1,5-a][1,4]diazepine-1-carbonyl)-N-methylpyrrolidine-3-carboxamide] stands above 10 µM. In turn, `CN1CCCn2c(-c3cc(Cl)ccc3F)nc(C(=O)N[C@H](CNS(C)(=O)=O)C(C)(C)C)c2C1` [Compound 771, (S)-3-(5-chloro-2-fluorophenyl)-N-(3,3-dimethyl-1-(methylsulfonamido)butan-2-yl)-8-methyl-6,7,8,9-tetrahydro-5H-imidazo[1,5-a][1,4]diazepine-1-carboxamide] registered an EC50 above 10 µM.

On to `CN1CCCn2c(-c3cc(Cl)ccc3F)nc(C(=O)N[C@H](CN)C(C)(C)C)c2C1` [Compound 768, (S)-N-(1-amino-3,3-dimethylbutan-2-yl)-3-(5-chloro-2-fluorophenyl)-8-methyl-6,7,8,9-tetrahydro-5H-imidazol[1,5-a][1,4]diazepine-1-carboxamide], for which the EC50 is above 10 µM.

In the case of `CN1CCCn2c(-c3cc(C(F)(F)F)ccc3F)nc(C(=O)N[C@H](C(=O)NCCF)C(C)(C)C)c2C1` [Compound 810, (S)-3-(2-fluoro-5-(trifluoromethyl)phenyl)-N-(1-(2-fluoroethylamino)-3,3-dimethyl-1-oxobutan-2-yl)-8-methyl-6,7,8,9-tetrahydro-5H-imidazo[1,5-a][1,4]diazepine-1-carboxamide], the EC50 is above 10 µM. `CNC(=O)[C@@H](NC(=O)c1nc(-c2cccnc2C)n2c1CN(C)CCC2)C(C)(C)C` [Compound 640, (S)-N-(3,3-dimethyl-1-(methylamino)-1-oxobutan-2-yl)-8-methyl-3-(2-methylpyridin-3-yl)-6,7,8,9-tetrahydro-5H-imidazo[1,5-a][1,4]diazepine-1-carboxamide] displayed an EC50 above 10 µM. In the case of `CN1CCCn2c(-c3cc(Cl)ccc3F)nc(C(=O)NC(CN3CCCC3)C(C)(C)C)c2C1` (stereo not shown) [Compound 720, 3-(5-chloro-2-fluorophenyl)-N-(3,3-dimethyl-1-(pyrrolidin-1-yl)butan-2-yl)-8-methyl-6,7,8,9-tetrahydro-5H-imidazo[1,5-a][1,4]diazepine-1-carboxamide], the EC50 was above 10 µM.

`CNC(=O)[C@@H](NC(=O)c1nc(-c2ccc(C(F)(F)F)cc2C)n2c1CN(C)CCC2)C(C)(C)C` [Compound 632, (S)-N-(3,3-dimethyl-1-(methylamino)-1-oxobutan-2-yl)-8-methyl-3-(2-methyl-4-(trifluoromethyl)phenyl)-6,7,8,9-tetrahydro-5H-imidazo[1,5-a][1,4]diazepine-1-carboxamide] registered an EC50 above 10 µM. As to `CNC(=O)[C@@H](NC(=O)c1nc(C2CCN(S(=O)(=O)c3ccccc3)CC2)n2c1CN(C)CCC2)C(C)(C)C` [Compound 727, (S)-N-(3,3-dimethyl-1-(methylamino)-1-oxobutan-2-yl)-8-methyl-3-(1-(phenylsulfonyl)piperidin-4-yl)-6,7,8,9-tetrahydro-5H-imidazo[1,5-a][1,4]diazepine-1-carboxamide], the EC50 is above 10 µM. Consider `CNC(=O)[C@@H](NC(=O)c1nc(-c2ccc(C(C)=O)s2)n2c1CN(C)CCC2)C(C)(C)C` [Compound 704, (S)-3-(5-acetylthiophen-2-yl)-N-(3,3-dimethyl-1-(methylamino)-1-oxobutan-2-yl)-8-methyl-6,7,8,9-tetrahydro-5H-imidazo[1,5-a][1,4]diazepine-1-carboxamide], for which the concentration for a half-maximal effect (EC50) is above 10 µM. Under `CN1CCCn2c(-c3cc(F)c(F)cc3F)nc(C(=O)N3CCOCC3)c2C1` [Compound 859, (8-methyl-3-(2,4,5-trifluorophenyl)-6,7,8,9-tetrahydro-5H-imidazo[1,5-a][1,4]diazepin-1-yl)(morpholino)methanone] stands above 10 µM. Take `CNC(=O)[C@@H](NC(=O)c1nc(C2CCN(C(=O)C(C)C)CC2)n2c1CN(C)CCC2)C(C)(C)C` [Compound 728, (S)-N-(3,3-dimethyl-1-(methylamino)-1-oxobutan-2-yl)-3-(1-isobutyrylpiperidin-4-yl)-8-methyl-6,7,8,9-tetrahydro-5H-imidazo[1,5-a][1,4]diazepine-1-carboxamide]: the EC50 was above 10 µM.
